Source: article PMC7000700, “RyR1-targeted drug discovery pipeline integrating FRET-based high-throughput screening and human myofiber dynamic Ca^2+ assays” (Scientific Reports, 2020)

Columns and labels:
[1] = tested on: electrically evoked Ca^2+ transients in rat skinned fibers; experiment: Electrically evoked Ca2+ transients (EC coupling) in rat skinned skeletal muscle fibers; type: cell-based; settings: field stimulation 1 Hz, 100 nM free Ca2+
Text: To test the potential impact of these compounds on excitation contraction coupling, we measured voltage-induced Ca^2+ transients in rat skeletal muscle fibers. To do this, we again used mechanically skinned fibers. Because the t-system reseals upon mechanical skinning, bathing the preparation in a K^+-based cytoplasmic solution (with a small amount of Na^+) allows the Na^+-K^+ pump to re-establish the normal membrane potential. EC coupling can be initiated by exciting the preparation with field pulses that generate action potentials in the t-system to trigger Ca^2+ release[52]–[54]. Ca^2+ release is tracked by imaging rhod-2 in the cytoplasm via confocal microscopy in line-scan mode, and quantitatively plotted in Fig. 5 (based on recordings such as shown in Supplementary Fig. 7). A major advantage of using skinned fibers is that known concentrations of RyR modulators can be added to the cytoplasm, as they were added in the “leak” experiments. With this approach, we found 1 and 10 μM myricetin reduced Ca^2+ transient peak amplitude by 12% (P = 0.0046) and 48% (P < 0.0001), respectively (Fig. 5 and Supplementary Fig. 7a). In the case of chloroxine, only addition of 100 μM led to a detectable 14% (P < 0.0001) reduction in the Ca^2+ transient peak amplitude (Fig. 5 and Supplementary Fig. 7b). Therefore, both compounds, have impact on Ca^2+ transients that is markedly lower than their effect on the t-tubule readout of RyR1 [Ca^2+] leak (Figs. 4 and 5).
All experimental methods using rats were approved by The Animal Ethics Committee at The University of Queensland. Five month old Wistar rats (UQ Biological Resources, Brisbane) were euthanized by asphyxiation via CO2 exposure, and the extensor digitorum longus (EDL) were rapidly excised.
Skinned rat fibers were prepared and bathed in a resting physiological solution containing 100 nM Ca^2+, 1 mM Mg^2+, 36 mM Na^+, 126 mM K^+, 1 mM EGTA, 90 mM HEPES, […], 10 mM creatine phosphate and 8 mM ATP (pH 7.4). The Ca^2+ sensitive dye rhod-2 was used to track cytosolic Ca^2+ transients when exposed to electrical stimulation. […]

[2] = tested on: RyR1 Ca^2+ leak in human skinned skeletal muscle fibers; experiment: t-system Ca2+ readout of RyR1 Ca2+ leak in human mechanically skinned skeletal muscle fibers; settings: for Reduction of RyR1 Ca2+ leak: at identified compound concentrations that only slightly affected Ca2+ release in EC coupling
[3] = 10 μM compound, 200 nM [Ca2+]cyto

SMILES | Reduction of Ca2+ transient peak amplitude ([1]; 100 μM compound) | Effect on steady-state [Ca2+]t-sys vs control (RyR1 leak) ([2]; 100 μM compound, 200 nM [Ca2+]cyto) | Effect on steady-state [Ca2+]t-sys (RyR1 leak) ([2]; all three concentrations tested (1, 10 and 100 μM), towards level of 1 mM tetracaine) | Reduction of RyR1 Ca2+ leak [2] | Reduction of Ca2+ transient peak amplitude ([1]; 1 μM compound) | Reduction of Ca2+ transient peak amplitude ([1]; 10 μM compound) | Effect on steady-state [Ca2+]t-sys vs control (RyR1 leak) ([2]; 1 μM compound, 200 nM [Ca2+]cyto) | Effect on [Ca2+]t-sys relative to RyR blocker tetracaine [2, 3] | Effect on steady-state [Ca2+]t-sys vs control (RyR1 leak) [2, 3]
Oc1c(Cl)cc(Cl)c2cccnc12 [chloroxine] | 14% | statistically decreased | progressively reduced | > 50% | – | – | – | – | –
O=c1c(O)c(-c2cc(O)c(O)c(O)c2)oc2cc(O)cc(O)c12 [myricetin] | – | – | – | > 50% | 12% | 48% | decreased | went beyond the effects of 1 mM tetracaine | decreased
